Data reported in paper PMC8092340 (Oncotarget, 2021).
Entries after “also recorded” stand apart in the source; their conditions may differ. Where two headings read alike, the source gives them in different places.

What was measured:
alt-NHEJ = assay: EJ-DR 384-well imaging assay, alt-NHEJ (RFP) readout; conditions: for selectivity index SI (CT IC50/alt-NHEJ IC50) / Selectivity Index (HR IC50/alt-NHEJ IC50): ratio; for Selectivity Index (HR IC50/alt-NHEJ IC50): Supplementary Table 2
From the text: (§4) The EJ-DR system was made in the U2OS cell line, which provides a simultaneous read-out of alt-NHEJ and HR activity in cells in response to induced DSBs. The cell line consists of a repair template and a reporter vector. When both these elements are chromosomally integrated, cleavage of a restriction enzyme site in the repair template, induced by ligand addition, causes a DSB. Depending on which DSB repair pathway is utilized, cells either express GFP if HR is used to repair the break site using the downstream homology template near the restriction enzyme site, or RFP if alt-NHEJ is involved in ligation of the cut ends.
(§5) An overview of the workflow of this assay is presented in Figure 1A, which starts with the addition of the test compounds and DSB ligands, followed by a media wash 24 hours later to terminate DSB induction, and then live cell imaging 96 hours later. After live cell imaging, we quantify the individual intensities of GFP and RFP signal in cells using the IN Cell imager. We then use the intensity measurements of individual cells in each channel and plot these intensities as a histogram to threshold out baseline levels of GFP and RFP intensity in the absence of ligands (Figure 1B and 1C). After applying the threshold, the percent of GFP and RFP-positive cells is calculated as a readout of induction of HR and alt-NHEJ activity, respectively.
(§6) In addition to quantifying HR and alt-NHEJ activities, cytotoxicity in the absence of DSB ligands (CT) was also evaluated by quantifying the number of Hoeschst 33342-stained cells, allowing us to better understand the margin between on-target and presumable off-target, DNA repair-independent effects. IC50 values of HR inhibition, alt-NHEJ inhibition, and CT were used to calculate the “selectivity index” (SI) (defined as the ratio of CT IC50/alt-NHEJ IC50) and alt-NHEJ selectivity defined as HR IC50/alt-NHEJ IC50.
(§7) The EJ-DR cell line was created in the U2OS cells (a human osteosarcoma cell line), and contained a stably integrated EJ-RFP plasmid to measure alt-NHEJ repair and a DR-GFP plasmid to measure HR repair, and has been previously described [9]. The EJ-DR cell line was cultured in high glucose Dulbecco’s modified Eagle’s medium (DMEM; Thermo Fisher Scientific) with L-glutamine containing 10% tetracycline-free (tet-free) fetal bovine serum (FBS; Takara Bio Inc. and Atlanta Biologics) and 1% Penicillin Streptomycin (Thermo Fisher Scientific). Tet-free FBS was used to prevent any expression of the tetracycline-inducible EJ-RFP system from residual tetracycline found in most commercially available FBS. All cells were maintained at 37°C with 5% CO2.
(§8) The EJ-DR cells were plated in 384-well imaging plates at 2500 cells/well. 24 hours later, the DSB ligands, Triamcinolone Acetonide (TA; Sigma-Aldrich Co., LLC) and Shield-1 (Takara Bio Inc.), responsible for inducing the DSBs, were added for a final concentration of 100 nM TA and 1 μM Shield-1. Test compounds were also added at the same time using Echo 550 Acoustic Dispenser (Labcyte). A separate plate was seeded to test for cytotoxicity of the test compounds in the absence of the DSB ligands. […] The DSB ligands were washed out 24 hours after addition. 96 hours after addition of the ligands and test compounds, the media was washed off and cells were incubated with Hoechst nuclear stain in Live Cell Imaging Solution (Thermo Fisher Scientific). Plates were rinsed and prepared for immediate live cell imaging using GE IN Cell 2200 (Cytiva Life Sciences).

[1] = Cytotoxicity in the absence of DSB ligands (CT), Hoechst cell count; assay type: cell-based, human; conditions: human, EJ-DR U2OS cells, no DSB ligands
Protocol: (§9) In addition to quantifying HR and alt-NHEJ activities, cytotoxicity in the absence of DSB ligands (CT) was also evaluated by quantifying the number of Hoeschst 33342-stained cells, allowing us to better understand the margin between on-target and presumable off-target, DNA repair-independent effects. IC50 values of HR inhibition, alt-NHEJ inhibition, and CT were used to calculate the “selectivity index” (SI) (defined as the ratio of CT IC50/alt-NHEJ IC50) and alt-NHEJ selectivity defined as HR IC50/alt-NHEJ IC50. […] (Figure 1E).
(§10) The EJ-DR cell line was cultured in high glucose Dulbecco’s modified Eagle’s medium (DMEM; Thermo Fisher Scientific) with L-glutamine containing 10% tetracycline-free (tet-free) fetal bovine serum (FBS; Takara Bio Inc. and Atlanta Biologics) and 1% Penicillin Streptomycin (Thermo Fisher Scientific). […] All cells were maintained at 37°C with 5% CO2.
(§11) The EJ-DR cells were plated in 384-well imaging plates at 2500 cells/well. 24 hours later, the DSB ligands, Triamcinolone Acetonide (TA; Sigma-Aldrich Co., LLC) and Shield-1 (Takara Bio Inc.), responsible for inducing the DSBs, were added for a final concentration of 100 nM TA and 1 μM Shield-1. Test compounds were also added at the same time using Echo 550 Acoustic Dispenser (Labcyte). A separate plate was seeded to test for cytotoxicity of the test compounds in the absence of the DSB ligands. […] The DSB ligands were washed out 24 hours after addition. 96 hours after addition of the ligands and test compounds, the media was washed off and cells were incubated with Hoechst nuclear stain in Live Cell Imaging Solution (Thermo Fisher Scientific). Plates were rinsed and prepared for immediate live cell imaging using GE IN Cell 2200 (Cytiva Life Sciences). Images were analyzed using InCell Analyzer software (Cytiva Life Sciences). Nuclei were segmented based on the Hoechst staining, and the intensity of the GFP and RFP signals in control populations were measured and binned into histograms to determine signal intensity threshold. The GFP and RFP intensity of all wells was then analyzed, and the percent of positive cells with GFP and RFP intensity above the threshold was calculated to determine the induction of signal. The DAPI cell counts were used to determine the relative cytotoxicity of test compounds in the absence of induced DNA damage.

EJ-DR U2OS cells = assay: as above; assay type: cell-based, human; conditions: Supplementary Table 2, mean ± SEM of four technical replicates
Protocol: as §9, §10, §11

HR = assay: EJ-DR 384-well imaging assay, HR (GFP) readout; conditions: read-out: HR IC50
From the text: as §4, §5, §6, §7, §8

[2] = In vivo pharmacokinetic study, brain tissue; conditions: female, athymic nude, mouse, brain, po, 30 mg/kg
Protocol: (§1) These measurements were used to calculate various pharmacokinetic parameters critical to bioavailability including time to reach maximum concentration (tmax), maximum concentration achieved (Cmax), and half-life (t1/2) (Figure 5C, 5D, Supplementary Table 1).
(§2) Compound concentrations were measured at these time-points using Liquid Chromatography with tandem mass spectrometry (LC-MS-MS). Pharmacokinetic studies were performed by orally dosing test compounds at 30 mg/kg dissolved in 50% PEG400 and 50% water in female athymic nude mice. Plasma and brain tissue concentration were measured using mass spectrometry (MS).

[3] = In vivo pharmacokinetic study, plasma
Protocol: as §1, §2

[4] = Microsomal half-life study; assay type: in vitro ADME; conditions: mouse, mouse liver microsomes; read-out: mouse liver microsome half-life
CYP2D6 = molecular target: T1, CYP2D6 (Homo sapiens, UniProt P10635); assay: Cytochrome P450 inhibition assay in human liver microsomes, CYP2D6; assay type: in vitro ADME
T1 construct: tissue Eurofins Scientific; host or cells: human liver microsomes
Protocol: (§3) CYP inhibition assays were performed by Eurofins Scientific. Test compounds were incubated with human liver microsomes, followed by compound detection using high performance liquid chromatography with tandem mass spectrometry (HPLC-MS/MS).

[5] = cited from earlier work
CYP3A4 = molecular target: T2, CYP3A4 (Homo sapiens, UniProt P08684); assay: Cytochrome P450 inhibition assay in human liver microsomes, CYP3A4; assay type: in vitro ADME; conditions: human liver microsomes
T2 construct: tissue Eurofins Scientific; host or cells: human liver microsomes
Protocol: as §3

Human hERG (Kv11.1) = molecular target: T3, Human hERG (Kv11.1) (Homo sapiens, UniProt Q12809); assay: Automated hERG inhibition patch clamp assay; assay type: cell-based
T3 construct: host or cells: CHO-K1
Protocol: Automated whole cell voltage clamp hERG inhibition assays were performed in Human hERG (Kv11.1) expressed in CHO-K1 cells optimized for automated patch clamp studies by Sophion Bioscience A/S [47].

[6] = Homo sapiens, U2OS, read-out: alt-NHEJ IC50
[7] = Homo sapiens, read-out: alt-NHEJ IC50
[8] = oral 30 mg/kg, female athymic nude mice
[9] = recurrent GBM patients, mibefradil with hypofractionated RT

T1 sequence (P10635 whole entry): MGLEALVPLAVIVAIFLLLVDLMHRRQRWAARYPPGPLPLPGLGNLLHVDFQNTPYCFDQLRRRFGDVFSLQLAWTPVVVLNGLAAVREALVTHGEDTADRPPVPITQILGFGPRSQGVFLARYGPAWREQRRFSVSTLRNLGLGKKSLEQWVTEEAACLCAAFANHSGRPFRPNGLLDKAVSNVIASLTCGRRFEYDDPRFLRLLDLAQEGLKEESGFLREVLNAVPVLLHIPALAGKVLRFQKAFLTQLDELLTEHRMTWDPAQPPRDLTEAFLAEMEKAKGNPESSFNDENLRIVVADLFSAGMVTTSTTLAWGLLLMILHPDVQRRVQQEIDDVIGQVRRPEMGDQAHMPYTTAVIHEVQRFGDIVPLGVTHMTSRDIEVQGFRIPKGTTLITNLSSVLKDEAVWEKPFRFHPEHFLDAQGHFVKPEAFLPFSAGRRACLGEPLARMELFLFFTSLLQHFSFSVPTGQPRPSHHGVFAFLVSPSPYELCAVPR
T3 sequence (Q12809 whole entry): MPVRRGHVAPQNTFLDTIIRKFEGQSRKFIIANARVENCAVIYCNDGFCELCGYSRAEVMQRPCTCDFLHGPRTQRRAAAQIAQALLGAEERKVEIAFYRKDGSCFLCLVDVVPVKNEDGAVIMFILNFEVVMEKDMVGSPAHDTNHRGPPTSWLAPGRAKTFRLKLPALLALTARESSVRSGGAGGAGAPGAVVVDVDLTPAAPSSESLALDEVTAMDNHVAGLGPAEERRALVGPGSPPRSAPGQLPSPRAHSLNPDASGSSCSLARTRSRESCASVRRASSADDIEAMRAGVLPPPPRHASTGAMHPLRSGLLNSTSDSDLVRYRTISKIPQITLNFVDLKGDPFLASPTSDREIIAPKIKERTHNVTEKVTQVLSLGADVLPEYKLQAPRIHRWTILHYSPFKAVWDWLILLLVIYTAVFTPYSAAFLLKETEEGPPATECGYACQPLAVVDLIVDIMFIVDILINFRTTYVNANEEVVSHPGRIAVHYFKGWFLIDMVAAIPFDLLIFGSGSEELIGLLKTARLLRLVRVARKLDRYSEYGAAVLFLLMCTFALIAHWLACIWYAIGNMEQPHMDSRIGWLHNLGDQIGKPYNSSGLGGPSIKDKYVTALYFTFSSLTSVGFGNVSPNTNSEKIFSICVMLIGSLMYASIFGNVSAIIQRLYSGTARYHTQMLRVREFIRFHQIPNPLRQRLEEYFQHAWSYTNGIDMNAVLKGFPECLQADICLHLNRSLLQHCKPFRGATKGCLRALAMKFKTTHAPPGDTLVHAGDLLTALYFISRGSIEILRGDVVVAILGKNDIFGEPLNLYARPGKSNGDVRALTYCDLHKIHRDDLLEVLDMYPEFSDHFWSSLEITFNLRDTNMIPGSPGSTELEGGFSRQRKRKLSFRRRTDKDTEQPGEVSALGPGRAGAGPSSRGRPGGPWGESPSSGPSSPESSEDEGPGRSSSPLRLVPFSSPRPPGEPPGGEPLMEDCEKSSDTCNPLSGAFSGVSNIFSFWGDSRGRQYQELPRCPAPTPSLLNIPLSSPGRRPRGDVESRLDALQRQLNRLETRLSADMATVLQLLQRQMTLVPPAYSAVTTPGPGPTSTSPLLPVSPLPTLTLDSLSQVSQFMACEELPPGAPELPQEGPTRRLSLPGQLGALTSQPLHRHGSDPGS
T2 sequence (P08684 whole entry): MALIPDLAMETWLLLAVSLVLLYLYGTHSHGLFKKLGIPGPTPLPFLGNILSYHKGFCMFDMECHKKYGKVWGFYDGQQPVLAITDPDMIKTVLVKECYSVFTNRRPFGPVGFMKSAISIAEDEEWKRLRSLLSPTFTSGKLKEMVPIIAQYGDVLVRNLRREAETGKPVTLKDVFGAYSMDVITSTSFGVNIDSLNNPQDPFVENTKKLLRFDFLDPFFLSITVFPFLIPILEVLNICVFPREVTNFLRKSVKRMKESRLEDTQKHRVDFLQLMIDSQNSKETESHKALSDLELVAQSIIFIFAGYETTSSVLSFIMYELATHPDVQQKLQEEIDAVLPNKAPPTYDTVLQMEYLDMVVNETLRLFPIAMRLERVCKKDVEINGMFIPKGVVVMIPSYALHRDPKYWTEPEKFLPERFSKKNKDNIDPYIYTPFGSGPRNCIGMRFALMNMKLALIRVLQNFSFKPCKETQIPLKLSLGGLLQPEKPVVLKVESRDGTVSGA

With `CC(C)[C@H]1c2ccc(F)cc2CC[C@]1(O)CC(=O)N(C)CCCc1nc2ccccc2[nH]1` [YU241551] the IC50 (alt-NHEJ; [6]) was greater than 60 µM, the “selectivity index SI (CT IC50/alt-NHEJ IC50)” value (alt-NHEJ) was greater than 1 and the IC50 at 96 h ([1]; figures, read-out: CT IC50 (cytotoxicity)) was greater than 60 µM.
With `CO[C@H]1C[C@@H]2CC[C@@H](C)[C@@](O)(O2)C(=O)C(=O)N2CCCC[C@H]2C(=O)O[C@H]([C@H](C)C[C@@H]2CC[C@@H](OCCO)[C@H](OC)C2)CC(=O)[C@H](C)/C=C(\C)[C@@H](O)[C@@H](OC)C(=O)[C@H](C)C[C@H](C)/C=C/C=C/C=C/1C` [Everolimus] the IC50 (alt-NHEJ; [7]) was 0.05 ± 0.03 µM, the “Selectivity Index (HR IC50/alt-NHEJ IC50)” value (alt-NHEJ) was 1.40 and the IC50 (EJ-DR U2OS cells; Homo sapiens, U2OS) was 3.17 ± 2.05 µM. For the same compound, the IC50 (HR; Homo sapiens) was 0.07 ± 0.03 µM.
`COCC(=O)O[C@]1(CCN(C)CCCc2nc3ccccc3[nH]2)CCc2cc(F)ccc2[C@@H]1C(C)C` [Mibefradil, mibefradil] gave a half-life [2] of roughly 8 h, a half-life ([3]; female, athymic nude, mouse, plasma, po, 30 mg/kg) of 2.6 h and a Cmax ([3]; female, athymic nude, mouse, plasma, po, 30 mg/kg, Maximum concentration (Cmax), oral 30 mg/kg, female athymic nude mice, YU252222 given as methyl ester prodrug) of 1090 ng/mL. The “% AUC Extrapolation” value [3, 8] was 0.4%, the “AUC(0-x)/Dose” value [3, 8] was 161 ng·h/mL/mg/kg and the Cmax/Dose [3, 8] was 36.3 ng/mL/mg/kg. For the same compound, the “Time at which Cmax was observed (tmax)” value [3, 8] was 1.0 h, the “effect on alt-NHEJ and HR in the EJ-DR assay” value (alt-NHEJ; EJ-DR U2OS cells) was “selective inhibition of alt-NHEJ over HR without significant cellular cytotoxicity; also recorded: selective inhibition of alt-NHEJ over HR” and the IC50 (alt-NHEJ; [6]) was roughly 4 µM. The IC50 (alt-NHEJ; Homo sapiens, read-out: nc-EJ IC50) was 3.8 µM, the half-life [4] was 0.25 h and the IC50 at 96 h ([1]; Table 1, read-out: Cytotoxicity IC50) was 10.5 µM. For the same compound, the IC50 (CYP2D6; human liver microsomes) was 0.6 µM, the “patients showing QT prolongation” value ([5]; mibefradil phase I trial, ref manuscript under preparation, 12) was “five out of 19” and the “QT interval elongation, dose-limiting toxicity” value [5, 9] was 28%. The “sinus bradycardia, dose-limiting toxicity” value [5, 9] was 28% and the IC50 (HR; Homo sapiens) was greater than 60 µM.
With `C[C@H]1COCCN1c1cc(C2(S(=O)(=O)C3CC3)CC2)nc(-c2ccc(NC(=S)NCCO)cc2)n1` [mTORC1/2 inhibitor, AZD 3147] the “selectivity index SI (CT IC50/alt-NHEJ IC50)” value (alt-NHEJ) was 7.22, the IC50 (alt-NHEJ; read-out: alt-NHEJ IC50, EJ-DR U2OS cells, text and figures) was 0.09 µM and the IC50 (HR; EJ-DR U2OS cells, text and figures) was 7.18 µM.
In the case of `O=c1cc(N2CCOCC2)oc2c(-c3cccc4c3sc3ccccc34)cccc12` [NU 4771], the “effect on alt-NHEJ and HR in the EJ-DR assay” value (alt-NHEJ; EJ-DR U2OS cells) is reported as “increase in both alt-NHEJ and HR”.
In the case of `COc1ccc(-c2ccc3c(N4CCOC[C@@H]4C)nc(N4CCOC[C@@H]4C)nc3n2)cc1CO` [AZD 8055], the IC50 (alt-NHEJ; [7]) is reported as 0.05 ± 0.01 µM, the “Selectivity Index (HR IC50/alt-NHEJ IC50)” value (alt-NHEJ) is reported as 57.00 and the IC50 (EJ-DR U2OS cells; Homo sapiens, U2OS) is reported as 0.89 ± 0.28 µM. The IC50 (HR; Homo sapiens) was 2.85 ± 1.04 µM.
For `COCC(=O)OC1(CCN2CC(Oc3nccc4ccccc34)CC2CO)CCc2cc(F)ccc2C1C(C)C` (stereo not shown) [YU252376], the IC50 (CYP3A4) was 12.6 µM, the selectivity ratio (CYP3A4; human, ratio, read-out: SICYP 3A4 (selectivity index of CYP, CYP3A4 IC50 to alt-NHEJ IC50), called fold decrease in CYP3A4 inhibition) was 11.4 and the IC50 (alt-NHEJ; [6]) was 1.1 µM. The IC50 (CYP2D6; human liver microsomes) was 3.5 µM, the selectivity ratio (CYP2D6; human, human liver microsomes, ratio, read-out: SICYP 2D6 (selectivity index of CYP, CYP2D6 IC50 to alt-NHEJ IC50), called fold decrease in CYP2D6 inhibition) was roughly 3 and the “SICYP 2D6 (selectivity index of CYP, CYP2D6 IC50 to alt-NHEJ IC50), called fold decrease in CYP2D6 inhibition” value (CYP2D6; ratio) was 3.18.
For `NC1(c2ccc(-c3nc4ccn5c(=O)[nH]nc5c4cc3-c3ccccc3)cc2)CCC1` [MK-2206], the IC50 (alt-NHEJ; [7]) was 0.66 ± 0.31 µM, the “Selectivity Index (HR IC50/alt-NHEJ IC50)” value (alt-NHEJ) was 6.67 and the IC50 (EJ-DR U2OS cells; Homo sapiens, U2OS) was 16.5 ± 2.56 µM. For the same compound, the IC50 (HR; Homo sapiens) was 4.4 ± 5.17 µM.
For `CC(C)[C@H]1c2ccc(F)cc2CC[C@]1(O)CCN1C[C@H](Oc2nccc3ccccc23)C[C@H]1CO` [YU252223], the IC50 (Human hERG (Kv11.1); patch clamp, CHO-K1 cells) was 6.8 µM, the “SIhERG (hERG IC50/alt-NHEJ IC50), called fold reduction in hERG potency” value (Human hERG (Kv11.1); ratio) was 4.14 and the IC50 (alt-NHEJ; [6]) was 1.64 µM.
In the case of `CC(C)NC[C@@H](C(=O)N1CCN(c2ncnc3c2[C@H](C)C[C@H]3O)CC1)c1ccc(Cl)cc1` [GDC-0068], the IC50 (alt-NHEJ; [7]) is reported as 9.4 ± 1.78 µM, the “Selectivity Index (HR IC50/alt-NHEJ IC50)” value (alt-NHEJ) is reported as 2.35 and the IC50 (EJ-DR U2OS cells; Homo sapiens, U2OS) is reported as 41.5 ± 3.32 µM. The IC50 (HR; Homo sapiens) was 22.1 ± 1.84 µM.
Work on `CCc1cncnc1N1CCN(Cc2nc3ccc(C(F)(F)F)cc3[nH]2)CC1` [PF-04708671] yielded an IC50 (alt-NHEJ; read-out: alt-NHEJ IC50, EJ-DR assay, Supplementary Table 2, mean ± SEM of four technical replicates) greater than 60 µM, an IC50 (EJ-DR U2OS cells) of 36.9 ± 3.82 µM and an IC50 (HR; EJ-DR assay, Supplementary Table 2, mean ± SEM of four technical replicates) greater than 60 µM.
